Measurements published in PubChem BioAssay AID179 (DTP/NCI, 2004).
The source made the active and inactive calls.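 Rule for the calls: active = compounds giving half or more protection of infected cells from virus-caused growth loss, again on retest; inactive = the rest.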 Where a SMILES comes first, the peptide text is derived from it.

Tested on: CEM cells HIV-1 protection, formazan growth assay
Assay: NCI AIDS Antiviral Assay
Settings: for IC50: measured here: growth of uninfected CEM cells
Procedure, shortened: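 Five concentrations of each compound were applied to infected and uninfected human CEM cells. Protection from HIV-1 was judged from growth measured with a soluble formazan assay.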

Row | SMILES | EC50 | IC50 | outcome
1 | CCCCCCCC(=O)c1c(O)c2ccccc2oc1=O | > 200 µM | 26.9 µM | 
2 | COCN1C(=O)[C@@H]2CCCN2C(=O)c2cc([N+](=O)[O-])ccc21 | > 200 µM | 102 µM | 
3 | CC(=O)O[C@@H]1C(O)C=C2c3cc4c(c(O)c3C(=O)NC2[C@@H]1OC(C)=O)OCO4 (stereo not given in full) |  |  | inactive
4 | CCN=C(NC(=O)c1ccccc1Cl)SCSC(=NCC)NC(=O)c1ccccc1Cl | > 200 µM | > 200 µM | 
5 | O=C1Nc2ccccc2S/C1=C/c1ccccc1 | > 20.4 µM | > 20.4 µM | 
6 | CCOC(=O)/C(=C\c1cccc(F)c1)P(=O)(OCC)OCC | > 57.5 µM | 10.2 µM | 
7 | CC(=O)OCC1OC(n2c(-c3ccc(C)cc3)cc(-c3ccccc3)c(C#N)c2=S)C(OC(C)=O)C(OC(C)=O)C1OC(C)=O (stereo not given) | > 200 µM | 67.6 µM | 
8 | CCOc1ccc(C2=NN(CC)C(=O)C(C3C(=O)N(c4ccccc4)N=C3C)C2)cc1 (stereo not given) | > 120 µM | > 120 µM | 
9 | CC(C)(C)N=NNc1cn(C2OC(CO)C(O)C2O)c(=O)[nH]c1=O (stereo not given) | > 724 µM | > 724 µM | 
10 | O=C1NC(N2CCCC(CO)C2)=N/C1=C\c1ccccc1 (stereo not given) | > 200 µM | > 200 µM | 
11 | COc1ccccc1N1C(=O)/C(=C/c2ccc(N(CCC#N)CCC#N)cc2C)N=C1c1cc([N+](=O)[O-])ccc1Cl |  |  | inactive
12 | COC(=O)c1cc(C)ccc1/C=C1\Cc2c(C)cc(C)cc2C1=O |  |  | inactive
13 | Cc1cc2c(C(C)C)c(O)c(O)c(C=O)c2c(O)c1-c1c(C)cc2c(C(C)C)c(O)c(O)c(C=O)c2c1O | > 200 µM | 1.23 µM | inactive
14 | COc1ccc(N2C(=O)C3c4[nH]c5c(C)cccc5c4C4CCC(c5ccccc5)CC4C3C2=O)cc1 (stereo not given) | > 200 µM | 60.3 µM | 
15 | Cc1c(C(=O)O)n(C)c(=O)n(C)c1=O |  |  | inactive
16 | O=C(Nc1ccc([N+](=O)[O-])cc1)C(=O)C(C(=O)c1ccccc1F)C1OC(=O)c2ccccc21 (stereo not given) | > 204 µM | 8.71 µM | 
17 | CCOC(=O)c1ccc(-n2[nH]c(=O)ccc2=O)cc1 | > 191 µM | > 191 µM | 
18 | Cc1c([N+](=O)[O-])ccc2c(NCCCN(C)C)ccnc12 | > 200 µM | 19.1 µM | 
19 | C/C(=N\NC(=S)NCCCNC(=S)N/N=C(\C)c1ccccn1)c1ccccn1 | > 200 µM | 3.16 µM | 
20 | CCCc1cc(=O)oc2c3c(cc(OC)c12)O[C@H](C)C(C)[C@H]3O (stereo not given in full) | > 200 µM | 51.3 µM | 
21 | CC(=O)/C(=C/n1c(=S)[nH]c2ccccc21)C(=O)Nc1ccc([N+](=O)[O-])cc1 | > 200 µM | 105 µM | 
22 | NC(N)=N/N=C\c1ccc(C2CCNCC2)cc1 | > 200 µM | > 200 µM | 

Row | SMILES | EC50 | IC50 | outcome
23 | Cc1ccccc1NC(=O)Cc1csc2[n+]1C(=O)/C(=C/c1ccc([N+](=O)[O-])cc1)S2 | > 200 µM | 38.9 µM | 
24 | CC(=O)Nc1ccc(OC2=CCN(C)CC2)cc1 | > 200 µM | > 200 µM | 
25 | CC(NNC(=O)c1ccncc1)c1ccccc1 (stereo not given) | > 200 µM | 75.9 µM | 
26 | CCCCCCC(=O)C(O)C(O)C(=O)CCCCCCCC(=O)O (stereo not given) | > 200 µM | 97.7 µM | 
27 | COc1cc2c(o1)C(=O)N1CCc3c([nH]c4ccccc34)C21 (stereo not given) | > 115 µM | 64.6 µM | 
28 | O=C(NC1CCC[C@H]1OC(=O)c1ccccc1)c1ccccc1 (stereo not given in full) |  |  | inactive
29 | CCC1C(C(=O)Nc2ccccc2C)=C(C)NC(C)=C1c1ccccc1C (stereo not given) | > 186 µM | > 186 µM | 
30 | C/C(=N\NC(=S)N1CCN(c2ccccn2)CC1)c1nccs1 | > 145 µM | 0.646 µM | 
31 | COc1ccc(C2CC(=O)c3c(cc(OC)c(OC)c3OC)O2)cc1 (stereo not given) | > 200 µM | 20.9 µM | 
32 | CC(C)N(C(=O)C12C3C4C5(C#N)C3C1(I)C5C42I)C(C)C (stereo not given) | > 14.1 µM | > 14.1 µM | 
33 | CCSc1[nH]c(NC(=S)NC(=O)c2ccccc2Cl)c(C(N)=O)c1C(N)=O | > 200 µM | 110 µM | 
34 | O=[N+]([O-])c1ccc(SSc2ccc([N+](=O)[O-])cc2)cc1 | > 200 µM | 24 µM | inactive
35 | S=C(NC1=NCC(CN2CCN(c3ccccc3)CC2)O1)Nc1ccccc1 (stereo not given) | > 200 µM | 45.7 µM | 
36 | O=C(OC[C@H]1C[C@H]2C(=O)CCC[C@H]2O1)c1ccccc1 | > 200 µM | > 200 µM | 
37 | O=c1c2ccccc2sc2nc(CCl)nn12 | > 355 µM | 57.5 µM | 
38 | CC1(C)CCC[C@]2(C)[C@H]3[C@H](C#N)c4cc(O)c(O)cc4O[C@@]3(C)CC[C@@H]12 | > 200 µM | 1.41 µM | 
39 | O=C(c1cccs1)N(C(=O)N1CCCCC1)c1ccccc1 | > 200 µM | 112 µM | 
40 | NC(=Nc1ccc(O)cc1)S(=O)O | > 200 µM | 120 µM | 
41 | CNC(=O)CN1CC(=O)N(C)C(=O)C1 | > 1260 µM | > 1260 µM | 
42 | CC(C)C(O)C(=O)C(F)C(C)C (stereo not given) | > 1410 µM | > 1410 µM | 
43 | CCN1CCC(O)(/C=C/c2ccc(C(C)C)cc2)C(C(=O)/C=C/c2ccc(C(C)C)cc2)C1 (stereo not given) | > 200 µM | 1.78 µM | 
44 | C/C(CCn1[nH]c(=O)ccc1=O)=N\O | > 1070 µM | > 1070 µM | 

Row | SMILES | EC50 | IC50 | outcome
45 | O=C(O)[C@@H]1CSC(c2ccccc2Cl)N1 (stereo not given in full) | > 200 µM | 141 µM | 
46 | CC(C)(C)[Si](C)(C)OCC1OC(n2ccc(=O)[nH]c2=O)C/C1=N/O (stereo not given) | > 200 µM | 74.1 µM | 
47 | O=[N+]([O-])c1ccccc1Sc1ccccc1[N+](=O)[O-] | > 7.94 µM |  | 
48 | Cc1cc(NS(=O)(=O)c2ccc(Nc3c4ccccc4nc4ccccc34)cc2)no1 | > 200 µM | 2 µM | 
49 | Cc1[nH]n(-c2nc3c(c(=O)[nH]2)CCCC3)c(=O)c1CCO | > 200 µM | 129 µM | 
50 | CC(=O)Oc1ccc(/C=C/C(=O)OCCOC(=O)/C=C/c2ccc(OC(C)=O)c(OC(C)=O)c2)cc1OC(C)=O | > 20 µM | 8.71 µM | 
51 | Cc1cc(O)c2c(oc3cc(O)c4c(c32)COC4=O)c1C(=O)O | > 56.2 µM | 18.6 µM | 
52 | CCCCn1c(=O)c(N=O)c(N)n(CC)c1=O | > 200 µM | 174 µM | 
53 | Clc1cccc(C2ON=C(c3ccccc3)N2C23CC4CC(CC(C4)C2)C3)c1Cl (stereo not given) | > 200 µM | > 200 µM | 
54 | NS(=O)(=O)c1ccc(SSc2ccc(S(N)(=O)=O)cc2[N+](=O)[O-])c([N+](=O)[O-])c1 | 30.9 µM | 195 µM | 
55 | Cc1ccc(CCC(=O)C(=O)O)s1 | > 479 µM | > 479 µM | 
56 | O=S(=O)(O)CC(O)CN(CCO)CCO (stereo not given) | > 200 µM | > 200 µM | 
57 | O=C(O)c1nc2ccccc2nc1Nc1ccc(Cl)c(Cl)c1 | > 200 µM | 11.5 µM | 
58 | O=C1CCCCCCCCCCOC(=O)CCCCCCCCCCO1 | > 10.2 µM | > 10.2 µM | 
59 | CCCCCCCCCCCCS(=O)(=O)O.[Pb] | > 200 µM | > 200 µM | 
60 | CN(CCO)CCN1c2ccccc2Sc2ccccc21 |  |  | inactive
61 | OCCN(CCO)c1ccc2c(-c3ccccc3)cc(N(CCO)CCO)nc2n1 | > 200 µM | 120 µM | 
62 | COC(=O)C12C3C4C5C3(C#N)C1C5(C(=O)OC)C42C(=O)N(C(C)C)C(C)C (stereo not given) | > 97.7 µM | > 97.7 µM | 
63 | Cc1ccc(CCNC(=S)SCC(NC(=O)CCC(N)C(=O)O)C(=O)NCC(=O)O)cc1 (stereo not given) | > 102 µM | 8.71 µM | 
64 | NC(CSCc1ccccc1)C(=O)O (stereo not given) | > 224 µM | > 224 µM | 
65 | Nc1ncnc2c1ncn2C1CCC(CP(=O)(O)O)C1 (stereo not given) | > 200 µM | > 200 µM | 
66 | Cc1ccccc1N1C(=O)/C(=C/c2ccc(N(CCC#N)CCC#N)cc2)N=C1c1cc([N+](=O)[O-])ccc1Cl | > 9.77 µM | > 9.77 µM | 

Row | SMILES | EC50 | IC50 | outcome
67 | COC(=O)/C(C#N)=C1\N=NNN1CCCN1CCOCC1 |  |  | inactive
68 | CN(/N=C/c1cccs1)c1ccc(Cl)cc1[N+](=O)[O-] | > 200 µM | 60.3 µM | 
69 | CCN(CC)Cc1ccccc1CC(=O)N1c2ccccc2C(=O)Nc2cccnc21 | > 200 µM | > 200 µM | 
70 | Cc1[nH]c(=S)[nH]c(=O)c1CCl | > 200 µM | 107 µM | 
71 | COc1ccc(Sc2ccccc2N)cc1 |  |  | inactive
72 | Fc1ccccc1CN1COc2c(cc(Cl)c3cccnc23)C1 | > 200 µM | 3.09 µM | 
73 | CC1(C)C2CCC1C(=O)C(C=O)C2 (stereo not given) | > 200 µM | > 200 µM | 
74 | O=C(Cc1ccccc1)c1ccc2[nH]c(=O)oc2c1 | > 200 µM | 102 µM | 
75 | CCOC(=O)[C@@]12C(C)=CC(=O)O[C@]1(C)C[C@H]2C#N | > 1000 µM | > 1000 µM | 
76 | O=C1CC(=O)NC(=NN2C(=O)/C(=C/c3ccccc3)N=C2c2ccccc2)N1 | > 200 µM | > 200 µM | 
77 | O=Cc1ccc(-c2ccc(-c3ccc(C=O)s3)o2)s1 |  |  | inactive
78 | CC(=O)OCC(C)C1=C(OC(C)=O)C(=O)C2(C)C/C=C(/C)CC/C=C(\C)CCC(OC(C)=O)C(C)CCC12 (stereo not given) | > 200 µM | 14.5 µM | 
79 | C/C(CC(=O)Nc1ccccc1[N+](=O)[O-])=N\NC(N)=O | > 468 µM | > 468 µM | 
80 | O=C(Nc1ccc2c(O)c(N=Nc3ccc4c(O)cc(S(=O)(=O)O)cc4c3)c(S(=O)(=O)O)cc2c1)c1ccccc1 | 18.6 µM | 50.1 µM | 
81 | Fc1ccc(C=NC23CC4CC(CC(C4)C2)C3)cc1 | > 28.2 µM | > 28.2 µM | 
82 | CCOP(=O)(OCC)C1C(=O)OC2(C)CCC1C2(C)C (stereo not given) |  |  | inactive
83 | O=C(c1cc(Cl)ccc1Cl)N1CCN(c2cccc(Cl)c2)CC1 | > 200 µM | 15.5 µM | 
84 | COC(=O)C1=C(C)N2CCOC2CC1c1ccccc1 (stereo not given) | > 200 µM | 135 µM | 
85 | O=NN(CC1(O)OCC(O)C(O)C1O)C(Cc1c[nH]c2ccccc12)C(=O)O (stereo not given) |  |  | inactive
86 | CCOC(=O)CCn1cnc(N)n1 |  |  | inactive
87 | CCC(C)C(NC(=O)C(CCCN=C(N)N)NC(=O)C(CC(=O)O)NC(=O)C(Cc1cnc[nH]1)NC(=O)C(N)CC(C)C)C(=O)NC(C(=O)NC(CC(C)C)C(=O)NCC(=O)NC(CC(=O)O)C(=O)O)C(C)CC (stereo not given) (H-LHDRIILGD-OH; configuration not given here) | > 58.9 µM | > 58.9 µM | 
88 | CN(C)CCn1c2ccccc2c2nc3cc4ccccc4cc3nc21 | > 50.1 µM | 0.363 µM | 
